Assay: RP, Waters CORTECS UPLC C18, 100 × 2.1 mm, 1.6 µm, 40 °C, 0.4 mL/min, estimated dead time 0.55 min; A: water + 0.1% formic acid, pH 3; B: acetonitrile + 0.1% formic acid, pH 3; gradient (min/%B) 0/5 1.12/5 6.41/99.5 10.01/99.5
Conditions: stereoisomer not certain

SMILES | LC retention time [min]
C[N+](C)(C)CC(CC(=O)[O-])OC(=O)CCCCC(=O)[O-].[H+] [Adipoyl-L-carnitine] | 1.3
CCCCCCCCCCCC(=O)OC(CC(=O)[O-])C[N+](C)(C)C [Lauroyl-L-carnitine] | 4.7
CNC(=O)Oc1cccc2ccccc12 [Carbaryl] | 3.14
CC(CCC(=O)O)C1CCC2C3CCC4CC(O)CCC4(C)C3CC(O)C12C (configuration not stated) [Deoxycholic acid] | 5.22
CON=C(C(=O)OC)c1ccccc1CON=C(C)c1cccc(C(F)(F)F)c1 [Trifloxystrobin] | 5.81
Cc1cn(C2CC(O)C(CO)O2)c(=O)[nH]c1=O (configuration not stated) [THYMIDINE] | 1.1
NC(=O)[C@@H](N)Cc1c[nH]c2ccccc12 [L-TRYPTOPHANAMIDE] | 1.79
CCS(=O)(=O)c1cccnc1S(=O)(=O)NC(=O)Nc1nc(OC)cc(OC)n1 [Rimsulfuron] | 4.11
O=c1c2cc(F)ccc2nc(-n2cncn2)n1-c1ccc(Cl)cc1Cl [Fluquinconazole] | 5.01
CNC(=O)N(C)c1nnc(C(C)(C)C)s1 [Tebuthiuron] | 3.68
CC(C)(C)C(O)C(Cc1ccc(Cl)cc1)n1cncn1 (configuration not stated) [Paclobutrazol] | 4.7
O=C1CC[C@@H](C(=O)O)N1 [L-Pyroglutamic acid] | 0.71
CCOP(=S)(OCC)Oc1ccc2c(C)c(Cl)c(=O)oc2c1 [Coumaphos] | 5.6
CCOC(=O)N(C)C(=O)CSP(=S)(OCC)OCC [Mecarbam] | 5.34
Cc1cc2nc[nH]c2cc1C [5,6 DIMETHYLBENZIMIDAZOLE] | 2.64
CC#Cc1cc(C)nc(Nc2ccccc2)n1 [Mepanipyrim] | 5.11
CCN(CC)C(=O)C(Cl)=C(C)OP(=O)(OC)OC (mixture of isomers) [Phospamidon (Mix of isomers)] | 3.69
O=C(O)c1cccc(O)c1O [2,3-DIHYDROXYBENZOATE] | 1.66
CNC(=O)CSP(=O)(OC)OC [Omethoate] | 1.75
COCCN(C(=O)CCl)c1c(C)cccc1C [Dimethachlor] | 4.55
Cc1ccc(-c2c(Cl)nc(C#N)n2S(=O)(=O)N(C)C)cc1 [Cyazofamid] | 5.39
CC1=NNC(=O)N(N=Cc2cccnc2)C1 [Pymetrozin] | 1.02
O=C(NCc1ncc(C(F)(F)F)cc1Cl)c1c(Cl)cccc1Cl [Fluopicolide] | 5.06
c1coc(-c2nc3ccccc3[nH]2)c1 [Fuberidazole] | 2.63
CC1OC(n2cnc3c(N)ncnc32)C(O)C1O (configuration not stated) [5'-DEOXYADENOSINE] | 0.931
CC(CC(=O)[O-])CC(=O)OC(CC(=O)O)C[N+](C)(C)C (configuration not stated) [3-Methylglutarylcarnitine] | 2.25
CC1CCC2(OC1)OC1CC3C4CC=C5CC(O)CCC5(C)C4CCC3(C)C1C2C (configuration not stated) [Diosgenin] | 7.3
